Assay results published in the supplement of paper PMC10307832.

Key:
Assay in all cases: relative viability (nuclei count vs DMSO), 5 days (fraction); higher = more cells survive
A-427 = test system: A-427
Summary of the method: (§1)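 Lung cancer cell lines in 1536-well plates got either a single drug or a fixed anchor-drug dose together with five library-drug doses (not always all listed) in √10 steps, by pin tool, on the day after seeding. Nuclei were counted after 5 days, and relative viability is the treated-to-vehicle ratio of nuclei counts. Values are medians of duplicate plates.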

ABC-1 = test system: ABC-1
Summary of the method: as §1

CAL-12T = test system: CAL-12T
Summary of the method: as §1

H3255 = test system: H3255
Summary of the method: as §1

NCI-H1355 = test system: NCI-H1355
Summary of the method: as §1

NCI-H1437 = test system: NCI-H1437
Summary of the method: as §1

NCI-H1651 = test system: NCI-H1651
Summary of the method: as §1

NCI-H1666 = test system: NCI-H1666
Summary of the method: as §1

NCI-H1792 = test system: NCI-H1792
Summary of the method: as §1

NCI-H1793 = test system: NCI-H1793
Summary of the method: as §1

NCI-H2009 = test system: NCI-H2009
Summary of the method: as §1

NCI-H2023 = test system: NCI-H2023
Summary of the method: as §1

NCI-H2087 = test system: NCI-H2087
Summary of the method: as §1

NCI-H23 = test system: NCI-H23
Summary of the method: as §1

NCI-H358 = test system: NCI-H358
Summary of the method: as §1

NCI-H522 = test system: NCI-H522
Summary of the method: as §1

NCI-H727 = test system: NCI-H727
Summary of the method: as §1

NCI-H838 = test system: NCI-H838
Summary of the method: as §1

PC-14 = test system: PC-14
Summary of the method: as §1

SK-MES-1 = test system: SK-MES-1
Summary of the method: as §1

SW 1573 = test system: SW 1573
Summary of the method: as §1

UMC-11 = test system: UMC-11
Summary of the method: as §1

`C=C1C(=O)O[C@@H](CCCCCCCC)[C@@H]1C(=O)O` [C-75] + CC(=O)c1c(C)c2cnc(Nc3ccc(N4CCNCC4)cn3)nc2n(C2CCCC2)c1=O [Palbociclib] (partner 0.5 µM) showed a relative viability (A-427; first compound 0.08 µM) of 0.531, a relative viability (A-427; first compound 0.253 µM) of 0.468 and a relative viability (A-427; first compound 0.8 µM) of 0.49. For the same compound, the relative viability (A-427; first compound 2.53 µM) was 0.464, the relative viability (A-427; first compound 8 µM) was 0.523 and the relative viability (ABC-1; first compound 0.08 µM) was 0.711. It also gave a relative viability (ABC-1; first compound 0.253 µM) of 0.935, a relative viability (ABC-1; first compound 0.8 µM) of 0.559 and a relative viability (ABC-1; first compound 2.53 µM) of 0.494. It also gave a relative viability (ABC-1; first compound 8 µM) of 0.494, a relative viability (CAL-12T; first compound 0.08 µM) of 0.531 and a relative viability (CAL-12T; first compound 0.253 µM) of 0.533. The relative viability (CAL-12T; first compound 0.8 µM) was 0.452, the relative viability (CAL-12T; first compound 2.53 µM) was 0.458 and the relative viability (CAL-12T; first compound 8 µM) was 0.449. It also gave a relative viability (H3255; first compound 0.08 µM) of 0.319, a relative viability (H3255; first compound 0.253 µM) of 0.28 and a relative viability (H3255; first compound 0.8 µM) of 0.323. The relative viability (H3255; first compound 2.53 µM) was 0.281, the relative viability (H3255; first compound 8 µM) was 0.329 and the relative viability (NCI-H1355; first compound 0.08 µM) was 0.402. For the same compound, the relative viability (NCI-H1355; first compound 0.253 µM) was 0.388, the relative viability (NCI-H1355; first compound 0.8 µM) was 0.428 and the relative viability (NCI-H1355; first compound 2.53 µM) was 0.364. The relative viability (NCI-H1355; first compound 8 µM) was 0.463, the relative viability (NCI-H1437; first compound 0.08 µM) was 0.301 and the relative viability (NCI-H1437; first compound 0.253 µM) was 0.381. For the same compound, the relative viability (NCI-H1437; first compound 0.8 µM) was 0.299, the relative viability (NCI-H1437; first compound 8 µM) was 0.312 and the relative viability (NCI-H1651; first compound 0.08 µM) was 0.509. It also gave a relative viability (NCI-H1651; first compound 0.253 µM) of 0.521, a relative viability (NCI-H1651; first compound 0.8 µM) of 0.521 and a relative viability (NCI-H1651; first compound 2.53 µM) of 0.476. It also gave a relative viability (NCI-H1651; first compound 8 µM) of 0.55, a relative viability (NCI-H1666; first compound 0.08 µM) of 0.626 and a relative viability (NCI-H1666; first compound 0.253 µM) of 0.638. It also gave a relative viability (NCI-H1666; first compound 0.8 µM) of 0.662, a relative viability (NCI-H1666; first compound 8 µM) of 0.594 and a relative viability (NCI-H1792; first compound 0.08 µM) of 0.67. For the same compound, the relative viability (NCI-H1792; first compound 0.253 µM) was 0.656, the relative viability (NCI-H1792; first compound 0.8 µM) was 0.686 and the relative viability (NCI-H1792; first compound 2.53 µM) was 0.381. For the same compound, the relative viability (NCI-H1792; first compound 8 µM) was 0.65, the relative viability (NCI-H1793; first compound 0.08 µM) was 0.278 and the relative viability (NCI-H1793; first compound 0.253 µM) was 0.311. It also gave a relative viability (NCI-H1793; first compound 2.53 µM) of 0.267, a relative viability (NCI-H1793; first compound 8 µM) of 0.306 and a relative viability (NCI-H2009; first compound 0.08 µM) of 0.24. For the same compound, the relative viability (NCI-H2009; first compound 0.253 µM) was 0.192, the relative viability (NCI-H2009; first compound 0.8 µM) was 0.19 and the relative viability (NCI-H2009; first compound 2.53 µM) was 0.171. The relative viability (NCI-H2009; first compound 8 µM) was 0.216, the relative viability (NCI-H2023; first compound 0.08 µM) was 0.395 and the relative viability (NCI-H2023; first compound 0.253 µM) was 0.449. For the same compound, the relative viability (NCI-H2023; first compound 0.8 µM) was 0.358, the relative viability (NCI-H2023; first compound 2.53 µM) was 0.244 and the relative viability (NCI-H2023; first compound 8 µM) was 0.276. For the same compound, the relative viability (NCI-H2087; first compound 0.08 µM) was 0.239, the relative viability (NCI-H2087; first compound 0.253 µM) was 0.232 and the relative viability (NCI-H2087; first compound 0.8 µM) was 0.239. It also gave a relative viability (NCI-H2087; first compound 2.53 µM) of 0.209, a relative viability (NCI-H2087; first compound 8 µM) of 0.217 and a relative viability (NCI-H23; first compound 0.08 µM) of 0.499. For the same compound, the relative viability (NCI-H23; first compound 0.253 µM) was 0.582, the relative viability (NCI-H23; first compound 0.8 µM) was 0.511 and the relative viability (NCI-H23; first compound 2.53 µM) was 0.467. The relative viability (NCI-H23; first compound 8 µM) was 0.42, the relative viability (NCI-H358; first compound 0.08 µM) was 0.137 and the relative viability (NCI-H358; first compound 0.253 µM) was 0.135. It also gave a relative viability (NCI-H358; first compound 0.8 µM) of 0.147, a relative viability (NCI-H358; first compound 8 µM) of 0.135 and a relative viability (NCI-H522; first compound 0.08 µM) of 1.27. It also gave a relative viability (NCI-H522; first compound 0.253 µM) of 0.989, a relative viability (NCI-H522; first compound 0.8 µM) of 1.06 and a relative viability (NCI-H522; first compound 2.53 µM) of 0.698. For the same compound, the relative viability (NCI-H522; first compound 8 µM) was 0.779, the relative viability (NCI-H727; first compound 0.08 µM) was 0.755 and the relative viability (NCI-H727; first compound 0.253 µM) was 0.667. For the same compound, the relative viability (NCI-H727; first compound 0.8 µM) was 0.544, the relative viability (NCI-H727; first compound 2.53 µM) was 0.614 and the relative viability (NCI-H727; first compound 8 µM) was 0.624. It also gave a relative viability (NCI-H838; first compound 0.08 µM) of 0.227, a relative viability (NCI-H838; first compound 0.253 µM) of 0.206 and a relative viability (NCI-H838; first compound 0.8 µM) of 0.194. The relative viability (NCI-H838; first compound 2.53 µM) was 0.207, the relative viability (NCI-H838; first compound 8 µM) was 0.206 and the relative viability (PC-14; first compound 0.08 µM) was 0.54. It also gave a relative viability (PC-14; first compound 0.253 µM) of 0.546, a relative viability (PC-14; first compound 0.8 µM) of 0.504 and a relative viability (PC-14; first compound 2.53 µM) of 0.453. The relative viability (PC-14; first compound 8 µM) was 0.445, the relative viability (SK-MES-1; first compound 0.08 µM) was 0.321 and the relative viability (SK-MES-1; first compound 0.253 µM) was 0.349. It also gave a relative viability (SK-MES-1; first compound 0.8 µM) of 0.309, a relative viability (SK-MES-1; first compound 2.53 µM) of 0.264 and a relative viability (SK-MES-1; first compound 8 µM) of 0.292. For the same compound, the relative viability (SW 1573; first compound 0.08 µM) was 0.357, the relative viability (SW 1573; first compound 0.253 µM) was 0.394 and the relative viability (SW 1573; first compound 0.8 µM) was 0.47. For the same compound, the relative viability (SW 1573; first compound 2.53 µM) was 0.423, the relative viability (SW 1573; first compound 8 µM) was 0.351 and the relative viability (UMC-11; first compound 0.08 µM) was 0.308. The relative viability (UMC-11; first compound 0.253 µM) was 0.315, the relative viability (UMC-11; first compound 0.8 µM) was 0.321 and the relative viability (UMC-11; first compound 2.53 µM) was 0.351. It also gave a relative viability (UMC-11; first compound 8 µM) of 0.268.
